From patent US20080214558A1, “PYRIMIDINE-2,4-DIAMINE DERIVATIVES AND THEIR USE AS JAK2 KINASE INHIBITORS” (SUPERGEN, INC., priority 2007, published 2008)

Experiments:
JAK2 kinase [1] = target: T1, JAK2 kinase (Homo sapiens, UniProt O60674); assay: JAK2 kinase inhibition assay (Promega Kinase-Glo); format: biochemical; conditions: read-out: IC50 against JAK2 kinase (Promega Kinase-Glo assay)
Description: One illustrative manner in which JAK2 kinase activity can be determined is by quantifying the amount of ATP remaining in solution after an in vitro JAK2 kinase reaction, such as the Kinase-Glo Assay Kit (Promega, Inc., Madison, Wis.). The amount of ATP remaining in the solution after the kinase reaction serves as a substrate for the luciferase to catalyze luciferin to oxyluciferin plus one photon of light. Thus, the luminescent signal read by the Luminoskan Ascent Instrument (Thermo Electron Corp., Milford, Mass.) correlates with the amount of ATP present after the kinase reaction and inversely correlates with the amount of kinase activity. This assay is efficient at determining the IC50 values of kinase inhibitors against the JAK2 kinase. These assays are set up in duplicate 50 ul volumes in white, flat bottom 96 well plates. Inhibitors are added to the solution of 1× kinase buffer, 6 uM ATP, 62.5 uM JAK2-specific substrate, 30 ng of active JAK2 enzyme, and water in serial dilutions ranging from micromolar to nanomolar concentrations. This solution is incubated at 30 degrees Celsius at 360 rpm for two hours. Following the incubation, 50 ul of Kinase-Glo reagent is added to each well, including all positive and negative control wells, and incubated at room temperature for 15 minutes. […] The IC50 values can then be calculated for each inhibitor tested.
IC50 values against JAK2 kinase (using the Promega Kinase-Glo assay) were measured for Compound Nos. 1-4, 1-7, 1-11 and 1-17.

[2] = tested on: various cancer cell lines; assay: Cell-Titer-Glo cell survival/proliferation assay; format: cell-based; conditions: screened between 300 nM and 10 nM, read-out: IC50 from % survival (Cell-Titer-Glo)
Method: Cell culture-based assays can be used to evaluate the ability of compounds of the invention to inhibit one or more cellular activities, such as cancer cell growth and/or survival. Numerous cancer cell lines can be obtained from the American Type Culture Collection (ATCC) and other sources. Briefly, cells are seeded into 96-well, tissue-culture treated, opaque white plates (Thermo Electron, Vantaa, Finland), at between 600 and 14000 cells per well, depending on the speed of cell proliferation, in 100 ul of appropriate growth medium (determined by the ATCC). Cells are then exposed to the appropriate concentration of drug and allowed to grow in its presence for 96 hours. Following this, 100 ul of Cell-Titer-Glo reagent (Promega, Inc., Madison, Wis.) is added to each well. Plates are then shaken for 2 minutes at room temperature to allow for cell lysis and incubated for 10 minutes at room temperature to stabilize the luminescent signal. Similar to the Kinase-Glo assay reagent from Promega, this reagent contains both luciferase enzyme and its substrate luciferin. Luciferase, activated by ATP in the cell lysate, catalyzes the conversion of luciferin to oxyluciferin, a reaction which produces light. The amount of light produced is proportionate to the amount of ATP in the cell lysate, which is itself proportional to cell number and gives an index of cellular proliferation.
Compound Nos. 1-4, 1-7, 1-11 and 1-17 were screened at a dilution range between 300 nM and 10 nM as JAK2 inhibitors, with percent survival being determined using the Cell-Titer-Glo Assay.

JAK2 V617F = target: T2, JAK2 V617F (Homo sapiens, UniProt O60674, V617F); assay: Invitrogen SelectScreen profiling, mutant JAK2; format: biochemical; conditions: read-out: IC50 against mutant JAK2 V617F (SelectScreen)
T2 construct: These enzymes include both the JH1 and JH2 homology regions of the protein; purchased Invitrogen Corporation (SelectScreen assay service, Carlsbad, Calif.)
T2 sequence (O60674 532-1132 V617F limits assumed): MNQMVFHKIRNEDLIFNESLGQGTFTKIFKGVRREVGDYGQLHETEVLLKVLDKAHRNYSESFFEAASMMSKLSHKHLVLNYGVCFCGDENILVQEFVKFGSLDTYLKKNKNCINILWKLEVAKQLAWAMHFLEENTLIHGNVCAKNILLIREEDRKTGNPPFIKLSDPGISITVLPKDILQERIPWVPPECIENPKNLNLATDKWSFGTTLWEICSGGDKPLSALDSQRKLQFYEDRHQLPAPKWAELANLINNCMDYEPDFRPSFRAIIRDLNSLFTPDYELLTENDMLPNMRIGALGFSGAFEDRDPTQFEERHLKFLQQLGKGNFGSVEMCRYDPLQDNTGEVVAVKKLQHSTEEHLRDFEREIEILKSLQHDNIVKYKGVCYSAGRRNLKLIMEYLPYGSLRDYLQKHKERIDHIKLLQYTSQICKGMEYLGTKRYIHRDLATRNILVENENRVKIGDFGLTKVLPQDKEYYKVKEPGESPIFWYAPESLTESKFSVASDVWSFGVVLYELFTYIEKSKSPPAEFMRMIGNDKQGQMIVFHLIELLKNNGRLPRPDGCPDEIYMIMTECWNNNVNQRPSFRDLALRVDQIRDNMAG
Description: (§1) The JAK2 V617F mutant isoform has recently come into focus for its role in neoplastic transformation. Thus, compounds may also be testing using the SelectScreen™ assay service (Invitrogen Corporation, Carlsbad, Calif.), which includes both wild-type and V617F mutant isoforms of JAK2. These enzymes include both the JH1 and JH2 homology regions of the protein, and differ only at amino acid 617.

JAK2 WT = target: T3, JAK2 WT (Homo sapiens, UniProt O60674); assay: Invitrogen SelectScreen profiling, wild-type JAK2; format: biochemical; conditions: read-out: IC50 against wild-type JAK2 (SelectScreen)
T3 construct: These enzymes include both the JH1 and JH2 homology regions of the protein; purchased Invitrogen Corporation (SelectScreen assay service, Carlsbad, Calif.)
T3 sequence (O60674 532-1132 limits assumed): as the sequence (O60674 532-1132 V617F limits assumed) above, with F86V counted along it
Description: as §1

[3] = tested on: nuclear STAT3 in AGS gastric cancer cells; assay: STAT3 nuclear translocation high-content assay (STAT3 HitKit, ArrayScan VTi); format: cell-based
Method: When STAT3 is phosphorylated by JAK2, it forms a homodimer and is translocated to the nucleus to effect transcription of a number of target genes involved in cell proliferation. AGS gastric cancer cells were inoculated onto 96 well plates, and incubated in the presence of 5 μM Compound 1-4 for 1, 5 or 24 hours. Following incubation, cells were stained using the STAT3 HitKit (Thermo-Fisher) and detected using the Molecular Translocation BioApplication on a ArrayScan VTi high-content screening instrument (Thermo-Fisher). Nuclei were pseudostained blue (Hoechst) and STAT3 was pseudostained green (FITC).
Nuclear STAT3 was reduced by greater than 50% 24 h after treatment with Compound 1-4 when compared with nuclear STAT3 levels in untreated samples.

JAK2 kinase [4] = target: T1, JAK2 kinase; assay: Radiometric IC50Profiler assay (Millipore-Upstate); format: biochemical; set-up: purchased Millipore-Upstate (KinaseProfiler / IC50Profiler assay service, Dundee, UK); conditions: read-out: IC50 (IC50 Profiler data)
Method: Compounds may also be tested using a radiometric assay; namely, the KinaseProfiler™ and IC50Profiler™ assay services (Millipore-Upstate, Dundee, UK). Briefly, compounds are tested at a single concentration (for single-point screening) or at a number of concentrations (for IC50 determinations) against recombinant JAK2 enzyme in the presence of radiolabeled ATP.

[5] = tested on: STAT3-phospho-Y705 in AGS gastric cancer cell line; assay: Western blot of STAT3 phosphorylation in AGS cells; format: cell-based; conditions: 24 hours, 5-10 uM, Western blot densitometry
Method: (§2) In order to detect specific inhibition of JAK2 enzyme in cell culture, Western blot assays may also be performed. For this, cells which have been treated with a potential JAK2 inhibitor are lysed with a buffer specific for the isolation and preservation of proteins (1% Nonidet P-40, 120 mM NaCl, 30 mM Tris pH 7.4, 1:100 Protease Inhibitor Cocktail III [Calbiochem/EMD Biosciences], 1:100 Phosphatase Inhibitor Cocktail 1 [Sigma-Aldrich, Saint Louis, Mo.], 1:100 Phosphatase Inhibitor Cocktail 2 [Sigma-Aldrich, Saint Louis, Mo.]). The protein concentration in these lysates is then quantified using the BCA Protein Assay Kit (Pierce). Known amounts of protein, e.g. 50 ug, are loaded onto 10% SDS-polyacrylamide gels and are subjected to reducing, denaturing SDS-PAGE. […]
(§3) In this example, Compound 1-4 is shown to reduce the JAK2-dependent phosphorylation of STAT3 and STAT5 in the AGS gastric cancer cell line. […] Following incubation, cells were lysed and total protein isolated and quantified. […] Densitometry analysis was performed in order to quantify the amount of STAT3 and STAT5 phosphorylation in these treated cells. Phospho-STAT3 and phospho-STAT5 were compared to total STAT3 and STAT5 and the proportion of STAT phosphorylation relative to untreated controls was determined.

[6] = tested on: STAT5-phospho-Y694 in AGS gastric cancer cell line; assay: Western blot of STAT5 phosphorylation in AGS cells; format: cell-based; conditions: 24 hours, 5-10 uM, Western blot densitometry
Method: as §2, §3

[7] = tested on: STAT5-phospho-Y694 in HEL cells expressing the V617F mutant of JAK2; assay: Western blot of STAT5 phosphorylation in HEL cells expressing JAK2 V617F; format: cell-based; conditions: Homo sapiens, 24 hours, Western blot densitometry, read-out: EC50 for reduction of STAT5 phosphorylation
Method: In order to detect specific inhibition of JAK2 enzyme in cell culture, Western blot assays may also be performed. For this, cells which have been treated with a potential JAK2 inhibitor are lysed with a buffer specific for the isolation and preservation of proteins (1% Nonidet P-40, 120 mM NaCl, 30 mM Tris pH 7.4, 1:100 Protease Inhibitor Cocktail III [Calbiochem/EMD Biosciences], 1:100 Phosphatase Inhibitor Cocktail 1 [Sigma-Aldrich, Saint Louis, Mo.], 1:100 Phosphatase Inhibitor Cocktail 2 [Sigma-Aldrich, Saint Louis, Mo.]). The protein concentration in these lysates is then quantified using the BCA Protein Assay Kit (Pierce). Known amounts of protein, e.g. 50 ug, are loaded onto 10% SDS-polyacrylamide gels and are subjected to reducing, denaturing SDS-PAGE. Electrophoresed proteins are transferred to a nitrocellulose membrane, which is then probed with antibodies to STAT5, pSTAT5 (Tyr 694), STAT3, and pSTAT3 (Tyr 705). As STAT5 and STAT3, at Tyrosine 694 and Tyrosine 705 respectively, are substrates for JAK2, measuring the amount of phosphorylation at these sites in treated cells provides a means by which to evaluate the efficacy of JAK2 inhibitors.
Briefly, HEL cells were plated in 25 cm^2 tissue culture flasks and incubated in the presence of varying concentrations of Compound Nos. 1 or 2 for 24 hours. Following incubation, cells were lysed and total protein isolated and quantified. 50 μg of total protein was electrophoresed and transferred to nitrocellulose membrane, at which point Western Blot analysis was performed using an antibody to STAT5-phospho-Y694. Comparisons to total STAT5 were made. Densitometry analysis was performed in order to quantify the amount of STAT5 phosphorylation in these treated cells.

T1 sequence (O60674 whole entry): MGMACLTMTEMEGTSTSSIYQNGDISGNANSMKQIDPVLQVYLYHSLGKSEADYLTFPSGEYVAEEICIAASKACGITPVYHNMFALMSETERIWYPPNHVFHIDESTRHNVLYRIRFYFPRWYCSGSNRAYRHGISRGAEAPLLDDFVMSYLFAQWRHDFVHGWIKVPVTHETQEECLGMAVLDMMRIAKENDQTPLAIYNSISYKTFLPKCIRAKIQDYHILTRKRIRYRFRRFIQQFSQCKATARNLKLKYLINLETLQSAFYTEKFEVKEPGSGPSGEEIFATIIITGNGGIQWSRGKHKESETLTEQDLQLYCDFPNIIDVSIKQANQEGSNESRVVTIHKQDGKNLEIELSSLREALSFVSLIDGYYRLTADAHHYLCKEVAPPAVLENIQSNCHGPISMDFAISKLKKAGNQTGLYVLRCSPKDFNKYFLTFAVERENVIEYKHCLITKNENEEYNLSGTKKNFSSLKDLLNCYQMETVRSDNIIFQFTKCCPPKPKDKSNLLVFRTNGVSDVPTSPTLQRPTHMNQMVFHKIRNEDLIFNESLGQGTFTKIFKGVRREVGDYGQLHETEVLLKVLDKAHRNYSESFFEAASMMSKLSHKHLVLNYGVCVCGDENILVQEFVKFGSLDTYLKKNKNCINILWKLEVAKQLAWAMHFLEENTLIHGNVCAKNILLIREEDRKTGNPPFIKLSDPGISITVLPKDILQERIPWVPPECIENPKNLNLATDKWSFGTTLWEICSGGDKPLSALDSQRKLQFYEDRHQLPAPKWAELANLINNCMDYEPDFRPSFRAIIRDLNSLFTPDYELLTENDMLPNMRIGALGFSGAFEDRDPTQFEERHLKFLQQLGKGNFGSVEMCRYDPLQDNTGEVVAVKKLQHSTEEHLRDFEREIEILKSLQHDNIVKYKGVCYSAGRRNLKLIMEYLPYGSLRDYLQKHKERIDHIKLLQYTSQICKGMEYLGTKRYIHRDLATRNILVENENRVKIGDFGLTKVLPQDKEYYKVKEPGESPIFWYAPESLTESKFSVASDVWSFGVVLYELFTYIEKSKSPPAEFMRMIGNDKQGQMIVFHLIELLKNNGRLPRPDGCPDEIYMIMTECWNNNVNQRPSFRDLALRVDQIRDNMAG

Row | IC50 (JAK2 kinase [1]) [µM] | IC50 (JAK2 V617F) [µM] | IC50 (JAK2 WT) [µM] | IC50 (JAK2 kinase [4]) [µM] | EC50 [7] [µM] | SMILES | IC50 [2] [µM] | STAT3 staining localisation ([3]; 5 μM, 1, 5 or 24 hours) | Reduction of nuclear STAT3 compared with untreated samples ([3]; 5 μM, 24 h after treatment) | STAT3 phosphorylation relative to untreated controls [5] | STAT5 phosphorylation relative to untreated controls [6]
1 | < 1 | < 1 | < 1 | < 1 | 0.299 | CN1CCN(c2ccc(Nc3nccc(Nc4ccc(F)c(Cl)c4)n3)cc2)CC1 [Compound 1-4, N4-(3-chloro-4-fluorophenyl)-N2-(4-(4-methylpiperazin-1-yl)phenyl)pyrimidine-2,4-diamine] | < 0.01 | confined outside the nucleus | greater than 50% | reduced levels | reduced levels
2 | < 1 | < 1 | < 1 | < 1 | 0.004 | CN1CCN(c2ccc(Nc3nccc(Nc4cccc(CC#N)c4)n3)cc2)CC1 [Compound 1-7, 2-(3-(2-(4-(4-Methylpiperazin-1-yl)phenylamino)pyrimidin-4-ylamino)phenyl)acetonitrile] | < 0.01 |  |  |  | 
3 | < 1 | < 1 | < 1 | < 1 | 0.0658 | CN1CCN(c2ccc(Nc3nccc(Nc4cccc(CC#N)c4)n3)cc2F)CC1 [Compound 1-11, 2-(3-(2-(3-Fluoro-4-(4-methylpiperazin-1-yl)phenylamino)pyrimidin-4-ylamino)phenyl)acetonitrile] | < 0.01 |  |  |  | 
4 | < 1 | < 1 | < 1 | < 1 | 0.266 | CN1CCN(C(=O)c2ccc(Nc3nccc(Nc4cccc(CC#N)c4)n3)cc2)CC1 [Compound 1-17, 2-(3-(2-(4-(4-methylpiperazine-1-carbonyl)phenylamino)pyrimidin-4-ylamino)phenyl)acetonitrile] | < 0.01 |  |  |  | 
